Measurements as given in US10908171B2, “Additive channels” (Emulate Inc., priority 2016, dated 2021).
Entries after “also recorded” stand apart in the source; their conditions may differ. Structures can show the parent of a compound that is named as a salt. Positions of bridges follow the written chain, without caps; N, C: chain ends. Non-standard residues stand in square brackets, D forms with d. Residues, ends and D or L forms follow the SMILES beside them. hArg = N=C(N)NCCCC[C@H](N)C(=O)O; Mpa = O=C(O)CCS

Assays:
fibrin = assay: Vessel-On-Chip fibrin deposition, fluorescent fibrinogen imaging; type: cell-based, human; details: for fibrin signal intensity: endothelial pre-treatment TNF-α 50 ng/ml 6 hours, or blood with sCollagen 10 μg/ml, vs blood alone; for fibrin deposition on the endothelium: hu5C8 240 μg/ml, sCD40L 10 ng/ml, alone or combined, compared to untreated blood
Experimental: (§1) Briefly, human blood was drawn in citrate buffer and used within 4 hours. Platelets were stained using fluorescently labeled non-blocking antibodies for the platelet surface marker CD41 and low dosages of fluorescent fibrinogen were added in order to visualize fibrin deposition. Blood was re-calcified in order to re-establish the full coagulation potential, then introduced in the biomimetic vessel-on-chip from the main inlet (embodiments of inlets shown in FIG. 18A-1, FIG. 18A-2 and FIG. 19C). The outlet of the chip was connected to a pulling syringe pump with a system of tubing and connectors made of medical grade silicon that excludes any metal components or potential causes of platelet activation (FIG. 5A).
(§2) Adding Blood to a Vessel-On-Chip And Flow Conditions: A medical grade plastic reservoir was mounted on the chip, then 800 μl of the blood sample was pipetted into the reservoir. The chip was perfused with the blood by withdrawing it at a rate of 60 μl/minute using a syringe pump. The citrated blood was re-calcified 2 minutes after the beginning of each experiment by adding 100 μl/ml of a solution containing 100 mM calcium chloride and 75 mM magnesium chloride to the blood to permit calcium- and magnesium-dependent platelet function and coagulation.
Visualizing Fibrin Deposition: When analyzing the formation of fibrin, 10 μg/ml of fluorescently labeled fibrinogen (Alexa 488, Invitrogen) was also added to the blood. While fluorescent fibrinogen was barely detected as a diffused fluorescence, fibrin deposition on inflamed cells and sparse clots was easily distinguished since fibrin formed filamentous structures produce a signal intensity that is clearly observed above a background threshold.
(§3) Fluorescence Image analysis: Chips perfused with blood samples were immediately imaged via fluorescence microscopy (Olympus IX83, 10× objective UPLFLN10X2, Orca-Flash 4.0 CMOS Camera). Each chamber was inspected along its entire length and 5 images (about 0.25 cm) were captured from the central area of the chamber. Image processing and quantification was performed with an automatic macro compiled in ImageJ and numerical values corresponding to platelet coverage or fibrin florescence were collected and statistically analyzed in Graphpad Prism V7.
(§4) Platelet Coverage: A percentage of signal coverage (or Platelet coverage) was computed from the binary image as the ratio of bright pixels to the total number of pixels in the image. Image processing and quantification was performed with an automatic macro compiled in ImageJ in order to ensure unbiased signal measurements. Numerical values corresponding to platelet coverage or fibrin fluorescence (signal intensity) were collected and statistically analyzed in Graphpad Prism V7.

[1] = tested on: thrombin anti-thrombin complex (TAT); assay: Thrombin anti-thrombin (TAT) ELISA in plasma of chip effluent; type: cell-based, human; details: for levels of TAT: plasma from blood flowing out of the chip, vs untreated blood
Experimental: Thrombin converts fibrinogen into fibrin during clot formation, and anti-thrombin plays a role in maintaining homeostasis by inhibiting the effect of thrombin. Formation of TAT in the microdevice confirms that local and intrinsic generation of thrombin, a potent platelet agonist, occurs in the model and that counter regulatory mechanisms for coagulation are retained. Thus, blood sampled from the Vessel-On-Chip was analyzed for thrombin anti-thrombin complex (TAT), an accepted clinical biomarker for procoagulation^48,49. TAT refers to a factor released upon activation of the coagulation cascade and one of the biomarkers associated with thrombotic events occurring in patients affected with deep vein thrombosis (DVT) or Systemic lupus erythematosus (SLE)^45,46. An enzyme-linked immunosorbent assay (ELISA) was used to quantify the thrombin anti-thrombin complex (TAT).
Thrombin-Anti Thrombin (TAT) Measurement via ELISA: Thrombin Anti-Thrombin (TAT) levels were analyzed in plasma from blood flowing out of the chip device by removing a sample from the outflow port. Thus TAT levels were evaluated in sample effluents collected from the outflow port of the chip using the Human TAT ELISA Kit (Siemens Healthineers) according to the user manual.
Blood sampled from the Vessel-On-Chip outflow port was analyzed for thrombin anti-thrombin complex (TAT), a factor released upon activation of the coagulation cascade and one of the biomarkers associated with thrombotic events occurring in patients affected with deep vein thrombosis (DVT) or SLE^45,46. TAT is an accepted clinical biomarker for procoagulation^48,49. An enzyme-linked immunosorbent assay (ELISA) was used to quantify the thrombin anti-thrombin complex (TAT).

platelets = assay: Vessel-On-Chip platelet coverage / aggregation, fluorescence imaging of CD41-labelled platelets in perfused re-calcified blood; type: cell-based, human; details: for platelet coverage: endothelial pre-treatment TNF-α 50 ng/ml 6 hours, or blood with sCollagen 10 μg/ml, vs blood alone; for platelet aggregate formation / platelet coverage: hu5C8 240 μg/ml, sCD40L 10 ng/ml, alone or combined, 60 μl/minute, compared to untreated blood
Experimental: as §1
After 14 minutes of perfusion, the flow was interrupted and the chips were immediately imaged via fluorescence microscopy (FIG. 18C and FIG. 19D). In healthy conditions, endothelial cells will provide an antithrombotic surface where blood can flow smoothly, and indeed we detected minimal platelet adhesion or fibrin deposition in our vessel-on-chip after blood perfusion in control conditions, FIG. 18C, Blood.
Experiments with Blood: Blood Samples And Endothelium: Citrated human blood (Research Blood Components, Cambridge, Mass.) was used within 4 hours of a blood draw in order to minimize pre-analytical effects on platelet function. Before every experiment, each one of the endothelialized channels (i.e. microchannels having an endothelial cell layer) was inspected via light microscopy. Samples showing any sign of discontinuity in the endothelium were discarded. […] USA) was at room temperature for 20 minutes.
Platelets: Platelets were labeled with human CD41-PE antibody (10 μL/ml, Invitrogen) directly added to the blood and incubated at room temperature for 5 minutes.
as §2, §3, §4

re-calcified blood = assay: On-chip anticoagulation of outflowing blood through the anticoagulant port; parameters: species or system human; details: introduced through the anticoagulant port; vs chips without anticoagulant port
Description: In order to functionally test the system, re-calcified blood was perfused through the inlet while anticoagulant, e.g. citrate buffer, was introduced online from the port situated next to the outflow port. Thus, blood obtained from the effluent of chips equipped with the anticoagulant port or without anticoagulant port were compared (FIG. 6). From a qualitative point of view the difference was striking.
In order to functionally test the additive channel (i.e. microfluidic chamber(s)) attached to the outflow port of a Vessel-On-Chip, re-calcified blood was perfused through the inlet port while citrate was introduced online from a port situated next to the outflow port, flowing through the additive channel. Thus, blood obtained from the effluent of chips equipped with the anticoagulant port (additive channel) or without anticoagulant port were compared (FIG. 6). From a qualitative point of view the difference was striking.

ICAM1 = ICAM1 immunostaining of endothelium; type: cell-based, human; details: TNF-α stimulated vs control
Experimental: ICAM1 is shown with examples identified by white arrows. One example of a DAPI stained nuclei is shown inside of a white circle.
TNF-alpha Stimulation: In some experiment endothelial cells were stimulate with 50 ng/ml of TNF (Sigma) for 6 hours in order to induce vascular inflammation before blood perfusion.

FcγRIIa = assay: hu5C8-mediated thrombosis on-chip, FcγRIIa dependence (platelet coverage, fibrin deposition, TAT); type: cell-based, human; details: with sCD40L, IV.3 1 μg/ml block or IgG2σ variant in place of hu5C8
Description: Recent studies conducted on humanized mice expressing the human Fcγ receptors (FCGR2A) have shown that this receptor plays a role in thrombosis leading to the IC-mediated toxicity^12,16,21. […] In order to investigate if the IC5c8-induced thrombosis that we observed in our vessel-on-chip system also relies on an Fc-mediated mechanism, we used two different tool molecules: IgG2σ and IV.3 (FIG. 25A). The IgG2σ variant of hu5C8 has an engineered Fc region^48 that eliminates affinity for the FcγRIIa, while the monoclonal antibody IV.3 is a blocking antibody binding to FcγIIa. Briefly, equimolar concentrations of IgG2σ […] hu5c8 were incubated with […] sCD40L for 20 minutes to form ICIgG2σ or IC5c8, respectively.
Some of the blood samples were treated with IV.3 (1 μg/ml) for 10 minutes to block the FcγRIIa, and then incubated for 20 more minutes with IC5c8. Finally, blood alone (control) or blood incubated with IC5c8, ICIgG2σ or IV.3 was perfused through the biomimetic microfluidic-on-chip for about 10 minutes. We tested 15 donors and all the tested conditions described above were tested in duplicates and analyzed as percentage of platelet coverage based on fluorescence microscopic imaging (FIG. 25B). Five of the donors were also tested for fibrin deposition (FIG. 25C). Finally, effluents plasma obtained from a total of 7 of the donors (including the 5 mentioned before) were used to assess TAT via ELISA (FIG. 25D). […]
Blood from several human donors were aliquoted into groups for the following treatments: controls (PBS), sCD40L, combined hu5C8/sCD40L, combined hu5C8 (IgG2σ/sCD40L combined, and combined hu5C8/sCD40L/IV.3. Each condition was tested with a minimum of 3 donors to a maximum of 15 donors, and all conditions were tested in duplicates and analyzed for platelet coverage (FIG. 25B), fibrin deposition (FIG. 25C), or increased formation of TAT measured in the eluates (FIG. 25D). Platelet coverage and fibrin deposition following treatment were normalized and reported as fold-increase over untreated control values for each donor.

[2] = lupus and/or Crohn's disease; cited from earlier work
[3] = Eptifibatide 2 μg/ml, endothelium inflamed with TNF-α, n=4

For N=C(N)NCCCC[C@@H]1NC(=O)CCSSC[C@@H](C(N)=O)NC(=O)[C@@H]2CCCN2C(=O)[C@H](Cc2c[nH]c3ccccc23)NC(=O)[C@H](CC(=O)O)NC(=O)CNC1=O [Eptifibatide] ([Mpa][hArg]GDWPC-NH2; disulfide 1-7), the fibrin clot formation (fibrin; [3]) was “significantly inhibited”, the “fibrin signal (image analysis)” value (fibrin; Eptifibatide 2 μg/ml, samples treated with TNF-α) was “a significant amount of fibrin signal was still detectable” and the “fibrin deposition in stimulated, pro-thrombotic conditions” value (fibrin; FIG. 18E-2, TNF-α or sCollagen with Eptifibatide, n=4 donors) was “suppressed”. The “TAT increment associated with TNF-α-induced inflammation” value ([1]; Eptifibatide treatment) was “did not inhibit”, the “TAT increment due to sCollagen treatment” value ([1]; Eptifibatide treatment) was “entirely suppressed” and the platelet aggregation (platelets; [3]) was “significantly inhibited”. The “inhibitory effect on platelet aggregation and fibrin clot formation” value (platelets; Eptifibatide 2 μg/ml, following treatment with sCollagen, n=4) was “comparatively modest”, the “platelet adhesion (image analysis)” value (platelets; Eptifibatide 2 μg/ml, samples treated with TNF-α, n=4) was “completely inhibited” and the “platelet coverage in stimulated, pro-thrombotic conditions” value (platelets; FIG. 18E-1, TNF-α or sCollagen with Eptifibatide, n=4 donors) was “suppressed”.

In the case of O=C(O)CC(O)(CC(=O)O)C(=O)O [sodium citrate], the “state of blood collected from the effluent” value (re-calcified blood) is reported as “soluble (not clotted) blood”.

In the case of TNF-α, the fibrin signal intensity (fibrin) is reported as “increased”, the “levels of TAT” value [1] is reported as “significantly increased; also recorded: elevated levels of TAT” and the platelet coverage (platelets) is reported as “increased areas of platelet coverage”. For the same molecule, the “expression of ICAM1 in the endothelium” value (ICAM1) was “increased expression; also recorded: higher”.

For “hu5C8 (IgG2σ): IgG2σ variant of hu5C8 with an engineered Fc region that eliminates affinity for FcγRIIa”, the “hu5C8-mediated thrombosis on-chip (platelet coverage, fibrin deposition, TAT)” value (shortened to “hu5C8-mediated thrombosis on-chip”) (FcγRIIa) was “did not show signs of thrombosis in any of the endpoints”, the “hu5C8-mediated thrombosis on-chip” value (FcγRIIa; listed as IgG2σ) was “suppressed” and the “hu5C8-mediated thrombosis on-chip” value (FcγRIIa; listed as hu5C8-IgG2σ) was “not detected”.

For “hu5C8: humanized monoclonal IgG1 antibody against CD40L, alternatively named anti-CD154”, the “thromboembolism and cardiovascular events during clinical trials” value [2] is given as “multiple incidents of thromboembolism and cardiovascular events”, the “fibrin deposition on the endothelium” value (fibrin) is given as “no significant treatment-related effects” and the “platelet aggregate formation / platelet coverage” value (platelets) is given as “no significant treatment-related effects”.

For “sCollagen: soluble collagen (Soluble Calf Skin, Type I), a standard platelet activator”, the fibrin signal intensity (fibrin) was “increased”, the “levels of TAT” value [1] was “minimally increased; also recorded: elevated levels of TAT” and the platelet coverage (platelets) was “increased areas of platelet coverage”.

B1: sCD40L: soluble CD40 ligand (CD154); recombinant human sCD40 Ligand (protein, UniProt P29965 47-261, looked up)
extracellular domain: HRRLDKIEDERNLHEDFVFMKTIQRCNTGERSLSLLNCEEIKSQFEGFVKDIMLNKEETKKENSFEMQKGDQNPQIAAHVISEASSKTTSVLQWAEKGYYTMSNNLVTLENGKQLTVKRQGLYYIYAQVTFCSNREASSQAPFIASLCLKSPGRFERILLRAANTHSSAKPCGQQSIHLGGVFELQPGASVFVNVTDPSQVSHGTGFTSFGLLKL
modifications: extracellular domain
With B1 the “fibrin deposition on the endothelium” value (fibrin) was “no significant treatment-related effects”, the “increase in platelet coverage in some donors” value (platelets; fold-increase over untreated control) was “about 2 fold” and the “platelet aggregate formation / platelet coverage” value (platelets) was “no significant treatment-related effects; also recorded: not statistically significant”.
